Measurements as given in US12029776B2, “Composition for treating cancer and use and medicament thereof” (NEWISH TECHNOLOGY (BEIJING) CO., LTD., priority 2020, dated 2024).
Counter-ions that a name gives are not always drawn.

The compounds below were run on liver cancer cell line (assay: VEGFR2 inhibitors in combination with the SGLT1 inhibitor on the liver cancer cell line (Example 2)). Conditions: combined with SGLT1 inhibitor sotagliflozin, FIG. 11-1 to 11-30.
Type: cell-based
Procedure: Dimethyl sulfoxide (DMSO) can dissolve formazan in cells, and its light absorption value measured at 570 nm wavelength with an enzyme-linked immunodetector can indirectly reflect the number of living cells. Cell growth was determined by 3-(4,5-dimethylthiazol-2-yl)-2,5-diphenyltetrazolium bromide (MTT) assay in a 96-well plate. Specifically, the cells were digested and counted, and then resuspended into a system containing 5000 cells per 200 μL of culture medium and seeded in each well of a 96-well plate. The next day, the medium was replaced with a medium containing different concentrations of sotagliflozin, apatinib, lenvatinib, and the composition of them. After 48 or 72 hours of incubation with the drugs, 20 μL of MTT reagent was added to each well and incubated for 2 hours. After discarding the medium, the formazan deposit in the cells was dissolved in 100 μL of DMSO. The absorbance was measured at 570 nm by a microplate reader. Samples were used in quadruplicate in each group.

Compound | tumor suppressive effect in combination with the SGLT1 inhibitor compared with single agent
Cc1cc(Nc2cc(N3CCN(C)CC3)nc(/C=C/c3ccccc3)n2)n[nH]1.O=C(O)C(O)C(O)C(=O)O [ENMD-2076 L-(+)-tartaric acid] | better tumor suppressive effect than as a single agent
Cc1cc(Nc2cc(N3CCN(C)CC3)nc(/C=C/c3ccccc3)n2)n[nH]1 [ENMD-2076] | better tumor suppressive effect than as a single agent
COc1cc2c(Oc3ccc4[nH]c(C)cc4c3F)ccnc2cc1OCC1(N)CC1 [anlotinib (AL3818) dihydrochloride] | better tumor suppressive effect than as a single agent
Cc1cc2c(F)c(Oc3ncnn4cc(OC[C@@H](C)OC(=O)[C@H](C)N)c(C)c34)ccc2[nH]1 [brivanib alaninate] | better tumor suppressive effect than as a single agent
Cc1cc2c(F)c(Oc3ncnn4cc(OC[C@@H](C)O)c(C)c34)ccc2[nH]1 [brivanib] | better tumor suppressive effect than as a single agent
COc1cc2nccc(Oc3ccc(NC(=O)C4(C(=O)Nc5ccc(F)cc5)CC4)cc3)c2cc1OC [cabozantinib malate] | better tumor suppressive effect than as a single agent
COc1cc2c(Oc3ccc4[nH]c(C)cc4c3F)ncnc2cc1OCCCN1CCCC1 [cediranib] | better tumor suppressive effect than as a single agent
CNC(=O)c1c(C)oc2cc(Oc3ncnc4cc(OC)c(OC)cc34)ccc12 [fruquintinib] | better tumor suppressive effect than as a single agent
COc1cc2nccc(Oc3ccc(NC(=O)NC4CC4)c(Cl)c3)c2cc1C(N)=O [lenvatinib mesylate] | better tumor suppressive effect than as a single agent
CCS(=O)(=O)O.COC(=O)c1ccc2c(c1)NC(=O)/C2=C(\Nc1ccc(N(C)C(=O)CN2CCN(C)CC2)cc1)c1ccccc1 [nintedanib ethanesulfonate salt] | better tumor suppressive effect than as a single agent
COC(=O)c1ccc2c(c1)NC(=O)/C2=C(\Nc1ccc(N(C)C(=O)CN2CCN(C)CC2)cc1)c1ccccc1 [nintedanib] | better tumor suppressive effect than as a single agent
CNC(=O)c1cc(Oc2ccc(NC(=O)Nc3ccc(Cl)c(C(F)(F)F)c3)c(F)c2)ccn1 [regorafenib] | better tumor suppressive effect than as a single agent
COCCNCc1ccc(-c2cc3nccc(Oc4ccc(NC(=O)C5(C(=O)Nc6ccc(F)cc6)CC5)cc4F)c3s2)nc1 [sitravatinib] | better tumor suppressive effect than as a single agent
O=C1c2c(O)cc(O)cc2O[C@H](c2ccc(O)c(O)c2)[C@H]1O [taxifolin] | better tumor suppressive effect than as a single agent
CNC(=O)c1cc(COc2nnc(Nc3ccc(Cl)cc3)c3ccoc23)ccn1 [telatinib] | better tumor suppressive effect than as a single agent
cediranib maleate | better tumor suppressive effect than as a single agent
vitamin E | better tumor suppressive effect than as a single agent

The compounds below were run on transplanted tumor of the liver cancer cell line Hep3B (assay: Efficacy on the transplanted tumor in nude mice). Conditions: FIG. 10.
Procedure: Hep3B cells were cultured with 10% serum DMEM medium and were digested and counted after they grew into the logarithmic phase. […] Therefore, the present invention adopted a dose of 5*10e6 cells per nude mouse, and administration was performed in groups after the tumors grew into an average volume of 100 mm^3 in about 21 days. The administration was divided into a solvent control group, an apatinib 50 mg/kg oral administration group, a sotagliflozin 20 mg/kg intraperitoneal injection group, and a combination group of simultaneous apatinib 50 mg/kg oral administration and sotagliflozin 20 mg/kg intraperitoneal injection. The administration cycle was once every other day, and the tumor volumes were measured every Tuesday and Friday and calculated according to the formula V=a*b^2/2 (a is the measured long diameter of the tumor, b is the measured short diameter of the tumor). A graph was mapped using Graphpad prism 5 and the measurement results were analyzed statistically.

Compound | sensitisation of the transplanted tumor to the growth inhibitory effect of apatinib
CCOc1ccc(Cc2cc([C@@H]3O[C@H](SC)[C@@H](O)[C@H](O)[C@H]3O)ccc2Cl)cc1 [sotagliflozin] | sensitive to the growth inhibitory effect of apatinib
